Source: PubChem BioAssay (NCI)
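Assay format: 96-well plates, 48-hour exposure. GI50 is the concentration that inhibits growth by half. Definition used: TGI = concentration required for complete inhibition of growth.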

Key:
Assay in all cases: NCI tumour cell line growth inhibition, 48 h
[1] = system: U251 CNS
[2] = system: SNB-75 CNS
[3] = system: MDA-MB-435
[4] = system: IGROV1 ovarian
[5] = system: LOX IMVI melanoma
[6] = system: HOP-62 NSCLC
[7] = system: SW-620 colon
[8] = system: SK-MEL-2 melanoma
[9] = system: A498 renal
[10] = system: HT29 colon
[11] = system: OVCAR-4 ovarian
[12] = system: PC-3 prostate
[13] = system: HL-60(TB) leukemia
[14] = system: NCI-H460 lung
[15] = system: NCI/ADR-RES ovarian
[16] = system: OVCAR-8 ovarian
[17] = system: OVCAR-3 ovarian
[18] = system: OVCAR-5 ovarian
[19] = system: SF-268 CNS
[20] = system: ACHN renal
[21] = system: MCF7 breast
[22] = system: UACC-62 melanoma
[23] = system: CCRF-CEM leukemia
[24] = system: SK-MEL-5 melanoma
[25] = system: SK-MEL-28 melanoma
[26] = system: 786-0 renal
[27] = system: HCC-2998 colon
[28] = system: MDA-MB-468 breast
[29] = system: RXF 393 renal

Question: Which GI50 [1] does the source give for `C=C(C)[C@@H]1CC[C@]2(C(=O)OC)CC[C@]3(C)[C@H](CC[C@@H]4[C@@]5(C)CC[C@H](N)C(C)(C)[C@@H]5CC[C@]43C)[C@@H]12` here?
Answer: 1750 nM

Question: What about the TGI [1] of the same molecule?
Answer: 3270 nM

Question: What about the GI50 [2] of the same molecule?
Answer: 1480 nM

Question: What about the TGI [2] of the same molecule?
Answer: 2920 nM

Question: What about the GI50 [3] of the same molecule?
Answer: 1620 nM

Question: What about the TGI [3] of the same molecule?
Answer: 3100 nM

Question: And the GI50 [4]?
Answer: 1740 nM

Question: What about the TGI [4] of the same molecule?
Answer: 3180 nM

Question: And the GI50 [5]?
Answer: 1330 nM

Question: And the TGI [5]?
Answer: 2640 nM

Question: What about the GI50 [6] of the same molecule?
Answer: 1830 nM

Question: What about the TGI [6] of the same molecule?
Answer: 3550 nM

Question: What about the GI50 [7] of the same molecule?
Answer: 1140 nM

Question: And the TGI [7]?
Answer: 2490 nM

Question: And the GI50 [8]?
Answer: 2040 nM

Question: And the TGI [8]?
Answer: 4300 nM

Question: What about the GI50 [9] of the same molecule?
Answer: 1450 nM

Question: What about the TGI [9] of the same molecule?
Answer: 2780 nM

Question: What about the GI50 [10] of the same molecule?
Answer: 1830 nM

Question: And the TGI [10]?
Answer: 3510 nM

Question: And the GI50 [11]?
Answer: 1830 nM

Question: What about the TGI [11] of the same molecule?
Answer: 3580 nM

Question: What about the GI50 [12] of the same molecule?
Answer: 1890 nM

Question: And the TGI [12]?
Answer: 4070 nM

Question: What about the GI50 [13] of the same molecule?
Answer: 1440 nM

Question: And the TGI [13]?
Answer: 3830 nM

Question: And the GI50 [14]?
Answer: 1430 nM

Question: And the TGI [14]?
Answer: 2860 nM

Question: What about the GI50 [15] of the same molecule?
Answer: 1850 nM

Question: What about the TGI [15] of the same molecule?
Answer: 3510 nM

Question: What about the GI50 [16] of the same molecule?
Answer: 2040 nM

Question: What about the TGI [16] of the same molecule?
Answer: 4400 nM

Question: What about the GI50 [17] of the same molecule?
Answer: 1490 nM

Question: What about the TGI [17] of the same molecule?
Answer: 2900 nM

Question: What about the GI50 [18] of the same molecule?
Answer: 1690 nM

Question: What about the TGI [18] of the same molecule?
Answer: 3130 nM

Question: What about the GI50 [19] of the same molecule?
Answer: 1810 nM

Question: And the TGI [19]?
Answer: 3490 nM

Question: What about the GI50 [20] of the same molecule?
Answer: 1700 nM

Question: And the TGI [20]?
Answer: 3070 nM

Question: And the GI50 [21]?
Answer: 1050 nM

Question: What about the TGI [21] of the same molecule?
Answer: 2340 nM

Question: And the GI50 [22]?
Answer: 1770 nM

Question: And the TGI [22]?
Answer: 3240 nM

Question: And the GI50 [23]?
Answer: 1800 nM

Question: What about the TGI [23] of the same molecule?
Answer: 4680 nM

Question: What about the GI50 [24] of the same molecule?
Answer: 1930 nM

Question: And the TGI [24]?
Answer: 3790 nM

Question: And the GI50 [25]?
Answer: 1680 nM

Question: And the TGI [25]?
Answer: 3080 nM

Question: What about the GI50 [26] of the same molecule?
Answer: 1700 nM

Question: What about the TGI [26] of the same molecule?
Answer: 3330 nM

Question: What about the GI50 [27] of the same molecule?
Answer: 1650 nM

Question: And the TGI [27]?
Answer: 3070 nM

Question: What about the GI50 [28] of the same molecule?
Answer: 1770 nM

Question: And the TGI [28]?
Answer: 3260 nM

Question: What about the GI50 [29] of the same molecule?
Answer: 1580 nM
